Laboratory results taken from patent US11179465B2, “Topical compositions comprising a corticosteroid” (PRIMUS PHARMACEUTICALS, INC., priority 2014, dated 2021).

Columns and labels:
[1] = Plasma concentrations of clobetasol propionate (PK blood samples); format: in vivo, human
Description: These investigational products were applied twice daily to all affected areas on the body excluding face, scalp, groin, axillae and other intertriginous areas. The subjects had 20 to 50% BSA treated to achieve maximal use exposure. The subjects were visited Screening, Baseline (Day 1), Day 8, Day 15 and Day 43 (if needed to confirm recovery). Clinical determinations of disease severity was conducted using the Investigator Global Assessment (IGA) for overall severity at each visit. Subjects were tested for HPA axis function using the ACTH stimulation test (i.e., a cosyntropin i.v. or i.m. injection) at the Screening Visit (at least 14 days and no more than 28 days prior to Baseline) and at Day 15. In addition, blood samples for serum dehydroepiandrosterone sulfate (DHEAS) was taken at Screening, on Day 8 and at the time of the ACTH stimulation test on Day 15 (pre-test sample) as a secondary measure of HPA axis suppression. At the time of the screening ACTH stimulation test, a PK blood sample was taken to obtain a baseline value (PK screening sample). On Day 15, subjects were applied the last dose of study product at the clinic up to 60 minutes after a pre-treatment PK blood sample was taken (0 hour-Day 15). PK blood samples was then collected at 1, 3 and 6 hours (±5 minutes) after application of the study product.
Subjects had applied study product to all affected areas except the face, scalp, groin, axillae and other intertriginous areas. The target dose was at least 5 to 7 g per day (1 teaspoon of cream, twice daily, applied at approximately 1 mg/cm2 on 20% BSA—3000 cm2). All baseline affected areas and newly affected areas have been treated until the end of the study even if cleared. The investigator had marked the affected areas (in the source document), updated the marking at each visit, and reminded the subjects where study product was to be applied at each visit using the marking. Study product have been applied directly onto affected areas and rubbed in gently and completely. Study product have been applied after bathing, if applicable.

[2] = tested on: HPA axis; conditions: topical; cited from earlier work
[3] = Average of Post-Treatment, subjects With HPA Axis Suppression
[4] = Average of Post-Treatment, subjects Without HPA Axis Suppression
[5] = Day 15: 1 Hour, subjects With HPA Axis Suppression
[6] = Day 15: 1 Hour, subjects Without HPA Axis Suppression
[7] = Day 15: 3 Hours, subjects With HPA Axis Suppression
[8] = Day 15: 3 Hours, subjects Without HPA Axis Suppression
[9] = Day 15: 6 Hours, subjects With HPA Axis Suppression
[10] = Day 15: 6 Hours, subjects Without HPA Axis Suppression
[11] = Day 15: Pre-Treatment (0 hour), subjects With HPA Axis Suppression
[12] = Day 15: Pre-Treatment (0 hour), subjects Without HPA Axis Suppression
[13] = Screening, subjects With HPA Axis Suppression (both creams pooled)
[14] = Screening, subjects Without HPA Axis Suppression (both creams pooled)

CCC(=O)O[C@]1(C(=O)CCl)[C@@H](C)C[C@H]2[C@@H]3CCC4=CC(=O)C=C[C@]4(C)[C@@]3(F)[C@@H](O)C[C@@]21C [Clobetasol Propionate, [17-(2′-chloroacetyl)-9-fluoro-11-hydroxy-10,13,16-trimethyl-3-oxo-6,7,8,11,12,14,15,16-octahydrocyclopenta[a]phenanthren-17-yl] propanoate]
Plasma Concentration of Clobetasol Propionate, Mean ± SD [1, 3]: 0.217123 ± 0.1537979 ng/mL | Plasma Concentration of Clobetasol Propionate, Median [1, 3]: 0.185565 ng/mL | Plasma Concentration of Clobetasol Propionate, Mean ± SD [1, 4]: 0.071244 ± 0.1060424 ng/mL | Plasma Concentration of Clobetasol Propionate, Median [1, 4]: 0.03174 ng/mL | Plasma Concentration of Clobetasol Propionate, Mean ± SD [1, 5]: 0.210873 ± 0.1962904 ng/mL | Plasma Concentration of Clobetasol Propionate, Median [1, 5]: 0.15588 ng/mL | Plasma Concentration of Clobetasol Propionate, Mean ± SD [1, 6]: 0.081012 ± 0.1512306 ng/mL | Plasma Concentration of Clobetasol Propionate, Median [1, 6]: 0.03173 ng/mL | Plasma Concentration of Clobetasol Propionate, Mean ± SD [1, 7]: 0.200668 ± 0.1260445 ng/mL | Plasma Concentration of Clobetasol Propionate, Median [1, 7]: 0.19545 ng/mL | Plasma Concentration of Clobetasol Propionate, Mean ± SD [1, 8]: 0.067637 ± 0.1039073 ng/mL | Plasma Concentration of Clobetasol Propionate, Median [1, 8]: 0.033185 ng/mL | Plasma Concentration of Clobetasol Propionate, Mean ± SD [1, 9]: 0.205386 ± 0.1474279 ng/mL | Plasma Concentration of Clobetasol Propionate, Median [1, 9]: 0.17805 ng/mL | Plasma Concentration of Clobetasol Propionate, Mean ± SD [1, 10]: 0.065451 ± 0.0915422 ng/mL | Plasma Concentration of Clobetasol Propionate, Median [1, 10]: 0.03626 ng/mL | Plasma Concentration of Clobetasol Propionate, Mean ± SD [1, 11]: 0.195691 ± 0.1507514 ng/mL | Plasma Concentration of Clobetasol Propionate, Median [1, 11]: 0.13649 ng/mL | Plasma Concentration of Clobetasol Propionate, Mean ± SD [1, 12]: 0.055406 ± 0.1003403 ng/mL | Plasma Concentration of Clobetasol Propionate, Median [1, 12]: 0.02623 ng/mL | Plasma Concentration of Clobetasol Propionate, Mean ± SD [1, 13]: 0 ± 0 ng/mL | Plasma Concentration of Clobetasol Propionate, Median [1, 13]: 0 ng/mL | Plasma Concentration of Clobetasol Propionate, Mean ± SD [1, 14]: 0.001282 ± 0.0075844 ng/mL | Plasma Concentration of Clobetasol Propionate, Median [1, 14]: 0 ng/mL | Mean plasma clobetasol levels, subjects with HPA axis suppression relative to those without ([1]; Table 8, both creams pooled): more than 3 times | Lowest dose at which the HPA axis is suppressed [2]: 2 grams per day
